According to patent publication US20110296540A1, “ASSAY FOR SCREENING ANTIDEPRESSANTS” (priority 2008, published 2011):

What was measured:
[1] = system: newborn granule cells; assay: Survival and maturation of newborn granule cells (BrdU/DCX/NeuN triple staining); type: in vivo, mice
Description: Immunohistochemistry and confocal imaging. Mice were anesthetized with ketamine/xylazine (100 and 7 mg/kg, respectively) and transcardially perfused (cold saline, followed by 4% cold paraformaldehyde in PBS). […] Serial sections were cut through the entire hippocampus (Franklin and Paxinos, 1997) using a cryostat and stored in PBS. Immunohistochemistry was performed in the following steps: 2 h incubation in 1:1 formamide/2×SSC at 65° C., 5 min rinse in 2×SSC, 30 min incubation in 2N HCl at 37° C., and 10 min rinse in 0.1M boric acid, pH 8.5, 2 h incubation in 0.1M PBS with 0.3% Triton X-100, and 5% normal donkey serum. Sections were then incubated overnight at 4° C. in primary antibodies for doublecortin (goat; 1:500; Santa Cruz Biotechnology, Santa Cruz, Calif.), bromodeoxyuridine (BrdU; rat; 1:100; Serotec, Oxford, UK), and neuronal-specific nuclear protein (NeuN) (mouse; 1:500; Chemicon, Temecula, Calif.). Biotinylated or fluorescent secondary antibodies were used. All secondary antibodies were purchased from Jackson ImmunoResearch (West Grove, Pa.). DCX staining for Sholl analysis was done as follows: sections were rinsed in PBS, treated with 1% H2O2 in 1:1 PBS and methanol for 15 min to quench endogenous peroxidase activity (and to enhance dendritic staining), incubated in 10% normal donkey serum and 0.3% Triton X-100 for 30 min, and then incubated overnight at 4° C. in primary antibody for doublecortin. After secondary antibody incubation, sections were developed using Vector ABC kit and DAB kit. Bright-field images were taken with a Zeiss (Oberkochen, Germany) Axioplan-2 upright microscope. Stereological procedure was used to quantify labeled cells (Malberg et al., 2000 ? ). All cell counting for triple-stained sections were done using a Zeiss LSM 510 META confocal microscope.
As depicted in FIG. 4A, BrdU (75 mg/kg) was given four times over 8 h on day 0 to achieve maximum labeling of proliferating progenitors over a restricted time window. […] Hippocampal sections were triple stained for BrdU, DCX, and NeuN (FIG. 4B,C). Image acquisition and cell counting were performed using a Zeiss LSM META 510 confocal microscopy.

[2] = system: MPP/DG synaptic connection; assay: Field electrophysiological recordings on hippocampal slices (MPP/DG), sham or x-irradiated animals; type: in vivo, mice
Description: Electrophysiology. Brains were collected from animals after deep anesthesia with halothane and decapitation, and transverse hippocampal slices (400 μm) were prepared using a vibratome. […] Slices were allowed to equilibrate for 2 h before positioning the electrodes and beginning stimulation.
To record from the DG, the medial perforant path (MPP) was stimulated using a World Precision Instruments (Sarasota, Fla.) stimulation isolation unit and a bipolar tungsten electrode. Evoked potentials were recorded in the molecular layer above the upper blade of the DG using a glass capillary microelectrode filled with artificial CSF (tip resistance of 1-3 MΩ). […] Input-output curves were obtained after 10 min of stable recordings. […] After 15 min of stable baseline response to test stimulation (once every 20 s), the ability to elicit LTP was assessed. […] Responses were recorded every 20 for 60 min after LTP induction.

[3] = system: C57BL/6Ntac mice; assay: Home cage activity; type: in vivo; conditions: chronic antidepressant treatment (fluoxetine 18 mg/kg/day)
Description: Home cage activity Home cage activity was quantified using the ActiV-Meter (Bioseb, France) over a 24 hours period. During the experiment, food and water were provided ad libitum. Various parameters such as activity time (sec), ambulatory distance (cm) and inactivity duration (calculated from the difference between immobility and motionless activity duration while the animal is eating or scratching) were recorded. The open field paradigm, the novelty suppressed feeding, the forced swim test The procedure for each behavioral test, i.e. the open field paradigm, the novelty suppressed feeding, the forced swim test, is described in the materials and methods section.

[4] = system: 1A-High and 1A-Low mice; assay: Novelty-suppressed feeding paradigm in 1A-High and 1A-Low mice; type: in vivo; conditions: twenty-five days, 18 mg/kg/day p.o.
Source text: The NSF paradigm is a test of hyponeophagia that measures the latency of a mouse to consume food placed in the middle of a brightly lit, aversive arena.

[5] = after 3 weeks of fluoxetine, mean±SEM

**Q.** What does the source list for `CNCCC(Oc1ccc(C(F)(F)F)cc1)c1ccccc1` (stereo not drawn) [fluoxetine]?
**A.** number of BrdU+NeuN+DCX+ cells ([1]; 3 and 4 weeks of fluoxetine): did not have an effect; number of cells expressing both BrdU and NeuN ([1]; 3 and 4 weeks of fluoxetine): also increased; pool of mature BrdU+NeuN+DCX− cells ([1]; 3 and 4 weeks of fluoxetine): significantly increased; total number of BrdU+ cells in the GCL (survival) ([1]; 3 and 4 weeks of fluoxetine begun 24 h after BrdU): significantly increased; proportion of BrdU cells that are NeuN+ ([1]; 5 d of fluoxetine): did not change; transition of BrdU immature cells from DCX+NeuN− stage to DCX+NeuN+ stage ([1]; 5 d of fluoxetine): did not change; proportion of BrdU+NeuN+ cells that ceased to express DCX [1, 5]: 39.24±1.78; proportion of BrdU+NeuN+ cells that express DCX [1, 5]: 51.64±3.71%; survival of immature neurons as measured by BrdU ([1]; subchronic, 5 d): did not change; input-output functions in the MPP/DG ([2]; chronic fluoxetine): significantly increased; paired-pulse depression (50 ms interstimulus interval) ([2]; chronic fluoxetine, one-third of maximal response and 60 μA): suppressed; ACSF-LTP ([2]; chronic fluoxetine, sham animals): enhanced; LTP ([2]; chronic fluoxetine, x-irradiated animals): completely blocked; input-output functions in the MPP/DG ([2]; subchronic fluoxetine): significantly increased; ACSF-LTP ([2]; subchronic fluoxetine, both sham and x-irradiated animals): suppression; corticosterone-induced decreased home cage activity and flattened circadian rhythm [3]: is not reversed; latency to feed (NSF), response to fluoxetine ([4]; 1A-High mice): no response; latency to feed (NSF), response to fluoxetine ([4]; 1A-Low mice): responded robustly
